Reference: patent publication US20240262791A1, “B[…] […] AMINO ACIDS” (priority 2021, published 2024)

What was measured:
[1] = tested on: Afb7X; assay: Afb7X and MBP-Z(24F-FSY) cross-linking; format: biochemical; conditions: MBP-Z(24F-FSY) with Afb7X, PBS pH 7.4, 37° C., 12 h
Experimental: We also introduced F-FSY into the maltose binding protein (MBP) fused Z protein at position 24 (MBP-Z(24F-FSY)). The purified MBP-Z(24F-FSY) was analyzed by electrospray ionization time-of-flight mass spectrometry (ESI-TOF MS). A peak observed at 50829 Da corresponds to intact MBP-Z containing F-FSY at site 24 (data not shown). We then tested the reactivities of F-FSY towards amino acid residue using the binding complex of MBP-Z and the Zspa affibody (Afb). Upon Afb-Z binding, F-FSY would be place in close proximity with the residue at position 7 of Afb (Afb7X) and would form a covalent bond with the targeting residue, causing protein-protein cross-linking.
0.5 mg/ml Afb7X and 1 mg/ml MBP-Z(24F-FSY) were incubated in PBS (pH 7.4) at 37° C. for 12 h, after which 1 j.tL reaction solution was extracted and mixed with 10 j.tL Laemmli loading buffer. The mixture was heated to 95° C. for 10 min and then loaded for SDS-PAGE, after which the gel was stained with Coomassie blue and imaged with ChemiDoc™ MP imaging system (Bio-rad).

[2] = target: T1, WT Spike RBD (Severe acute respiratory syndrome coronavirus 2, UniProt P0DTC2); format: biochemical, SARS-CoV-2
T1 construct: SARS-CoV-2 spike protein, RBD, 6His tag (S protein) was purchased from ACRObiosystems (#SRD-C52H3); purchased ACRObiosystems #SRD-C52H3

[3] = tested on: nucleoside monophosphates (NMPs: AMP, UMP, CMP, or GMP); assay: In vitro incubations of NMPs and SFY; conditions: 50 mM SFY, 50 mM NMP, 37° C.
Experimental: In addition, to check if SFY could cross-link all four nucleotides, we incubated 50 mM SFY with 50 mM different nucleoside monophosphates (NMPs: AMP, UMP, CMP, or GMP) at 37° C. for 16 hours.
50 mM SFY (HCl salt) and 50 mM NMP was incubated in DI H2O. 50 mM NaOH was added to neutralize the HCl salt. The mixture was incubated at 37° C. for 48 h. Then the reaction mixture was diluted for 50 times in H2O/acetonitrile (50/50, v/v, with 0.1% trifluoracetic acid) and subjected to mass spectrum analysis using positive mode. Mass spectrum analysis was performed on SCIEX MDS, 3200 Q TRAP system.

[4] = SFY crosslinking of protein residues and RNA in cells; format: cell-based; conditions: E. coli and HEK293T cells
Experimental: FIG. 4B: Fluorescence confocal images HEK293 cells expressing EGFP(40TAG) gene and the Mm-tRNA^Pyl/MmSFYRS with and without 1 mM SFY. FIG. 4C: Flow cytometric analysis of SFY incorporation into EGFP(40TAG) in HEK293 cells using Ma-tRNA^Pyl/MaSFYRS. […] FIGS. 4E-4F: Analysis of crosslinking of Afb(24SFY) with MBP-Z(7X) in E. coli cells. Western blot of E. coli cell lysate (FIG. 4E); SDS-PAGE of proteins His-tag purified from E. coli (FIG. 4F). Maltose binding protein (MBP) was fused to the N-terminus of Z protein to better separate Z from Afb in size. […] FIG. 4H: Western blot analysis of lysate of HEK293T cells expressing GST(103SFY-107X). X is the target residue indicated. FIG. 4I: Western blot analysis E. coli cells expressing Hfq with SFY incorporated at site 25 or 49. Cell lysate samples were treated with or without RNase before loading, and an anti-His antibody was used to detect the 6×His tag appended at the C-terminus of expressed Hfq.

[5] = tested on: GST; assay: Cross-linking of GST-103SFY-107X in live mammalian cells; format: cell-based; conditions: SFY at site 103 of GST, residue 107 varied, HEK293T cells
Experimental: […] of pcDNA-GST-103TAG-107X (X=A, H, Y or K)^3 and […] of pNEU-MmSFYRS-4xU6M15 were co-transfected into target cells using 5 μL of lipofectamine 2000 following the manufacturer's instructions. Six hours post transfection, the media were replaced with complete DMEM media with or without 1 mM SFY. The cells were incubated at 37° C. for additional 48 h, collected, and applied for immunoblot analysis.

[6] = tested on: HEK293T cells; format: cell-based; conditions: 0 to 1 mM SFY, 24-48 h
Experimental: 2×10^4 cells/well of HEK293T cells were seeded in a 96-well plate. On the next day, the media were replaced with fresh DMEM media supplemented with 0, 0.0625, 0.125, 0.25, 0.5, or 1 mM of SFY. The SFY-treated and control cells were cultured for an additional 24-48 h at 37° C. and then analyzed with CellTiter-Blue® Cell Viability Assay following the manufacturer's instructions.

[7] = tested on: HeLa-EGFP (182TAG) reporter cells; assay: Genetic incorporation of mFSY in HeLa-EGFP (182TAG) reporter cells; format: cell-based; conditions: no mFSY added or 1 mM mFSY added
From the text: FIGS. 12A-12C: Genetic incorporation of mFSY into proteins in mammalian cells. FIG. 12A: FACS analysis of mFSY incorporation into HeLa-EGFP (182TAG) cells. Negative control cells were either not transfected with any plasmid or were not treated with mFSY. FACS data is representative of three biological replicates. FIG. 12B: Bar graph showing total EGFP fluorescence percentage from FACS data. Error bar: s.d., n=3. FIG. 12C: Fluorescence microscopy and brightfield images of HeLa-EGFP (182TAG) reporter cells under two conditions: no mFSY added or 1 mM mFSY added.

[8] = healthy volunteers in phase I trial, patients in phase II trial; cited from earlier work

With `NC(Cc1ccc(OS(=O)(=O)F)c(F)c1)C(=O)O` (centres unmarked) [FFY] the “residues forming a covalent bond with F-FSY” value [1] was “form a covalent bond with Lys, His and Tyr” and the “PERx reaction rate over FSY in the mNB6 system” value [2] was 240%.

With `COc1ccc(CC(N)C(=O)O)cc1S(=O)(=O)F` (centres unmarked) [SFY, o-sulfonyl fluoride-O-methyltyrosine] the “cross-linking adducts with NMPs detected by MS” value [3] was “Cross-linking adducts of SFY with all four NMPs were detected”, the “crosslinking capability of SFY” value [4] was “allows crosslinking of His, Tyr, Lys residues in protein and of RNA in cells” and the “residues reacting with SFY placed in proximity” value [5] was “react with His, Tyr, and Lys”. For the same molecule, the “toxicity to HEK293T cells” value [6] was “did not observe obvious toxicity”.

With `NC(Cc1cccc(OS(=O)(=O)F)c1)C(=O)O` [mFSY, meta-fluorosulfate-L-tyrosine] the “EGFP fluorescence (mFSY incorporation)” value [7] was “Fluorescence is only seen after the addition of mFSY”.

For rhACE2, the safety and tolerability [8] is listed as “safe and well tolerated”.
